Like-named read-outs stand apart in the source and are kept apart here.
Assays:
[1] = Microsomal stability, human liver microsomes (predicted hepatic clearance); settings: predicted from in vitro microsomal stability data
GLP-1R = GLP-1R (Homo sapiens, UniProt P43220); assay: GLP-1R activation: cAMP increase in CHO cells stably expressing GLP-1R; assay type: cell-based
[2] = cAMP increase, CHO cells stably expressing GLP-1R, 10 point dose response, 30 minutes incubation, read-out: EC50

GLP-1R, sequence (P43220 24-463): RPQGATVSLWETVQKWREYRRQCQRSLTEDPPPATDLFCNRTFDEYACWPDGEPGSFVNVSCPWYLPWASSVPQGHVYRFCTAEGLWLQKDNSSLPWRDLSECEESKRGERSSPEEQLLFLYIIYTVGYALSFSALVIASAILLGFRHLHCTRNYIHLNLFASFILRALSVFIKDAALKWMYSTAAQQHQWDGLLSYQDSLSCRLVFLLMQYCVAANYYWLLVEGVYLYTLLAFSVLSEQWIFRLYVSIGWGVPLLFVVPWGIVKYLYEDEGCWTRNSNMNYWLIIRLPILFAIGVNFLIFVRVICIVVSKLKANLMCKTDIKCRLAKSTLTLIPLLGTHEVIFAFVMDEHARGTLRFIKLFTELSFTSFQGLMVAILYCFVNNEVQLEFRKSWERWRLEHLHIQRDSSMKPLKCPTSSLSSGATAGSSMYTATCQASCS

Row | SMILES | Predicted Hepatic Clearance (Pred. Cl.) [1] | EC50 (GLP-1R; [2]) | EC50 (GLP-1R; EC50 (nM))
1 | N#Cc1ccc(COc2cccc(-c3ccc(Cc4nc5ccc(C(=O)O)cc5n4CC4CC4)c(F)c3)n2)c(F)c1 [Example 389, 2-(4-(6-((4-cyano-2-fluorobenzyl)oxy)pyridin-2-yl)-2-fluorobenzyl)-1-(cyclopropylmethyl)-1H-benzo[d]imidazole-6-carboxylic acid] | <1.83 mL/min/kg | 26.6 nM | 
2 | N#Cc1ccc(COc2cccc(-c3cc(F)c(Cc4nc5ccc(C(=O)O)cc5n4C[C@@H]4CCO4)cc3F)n2)cn1 [Example 807] | 3.33 mL/min/kg | 0.18 nM | 
3 | N#CCC1(Cn2c(Cc3ccc(-c4ccc(F)c(OCc5ccc(C#N)cc5F)n4)c(F)c3)nc3ccc(C(=O)O)cc32)CC1 [Example 95, 2-(4-(6-((4-cyano-2-fluorobenzyl)oxy)-5-fluoropyridin-2-yl)-3-fluorobenzyl)-1-((1-(cyanomethyl)cyclopropyl)methyl)-1H-benzo[d]imidazole-6-carboxylic] | 6.7 mL/min/kg | 0.26 nM | 
4 | N#Cc1ccc(COc2cccc(-c3cc(F)c(Cc4nc5ccc(C(=O)O)cc5n4CC4(C(F)F)COC4)cc3F)n2)c(F)c1 [Example 308, 2-(4-(6-((4-cyano-2-fluorobenzyl)oxy)pyridin-2-yl)-2,5-difluorobenzyl)-1-((3-(difluoromethyl)oxetan-3-yl)methyl)-1H-benzo[d]imidazole-6-carboxylic acid] | 5.83 mL/min/kg | 1.26 nM | 
5 | COCCn1c(Cc2cc(F)c(-c3cccc(OCc4ccc(C#N)cc4)n3)cc2F)nc2ccc(C(=O)O)cc21 [Example 604, 2-(4-(6-((4-cyanobenzyl)oxy)pyridin-2-yl)-2,5-difluorobenzyl)-1-(2-methoxyethyl)-1H-benzo[d]imidazole-6-carboxylic acid] | 4.5 mL/min/kg | 0.92 nM | 
6 | N#CCC1(Cn2c(Cc3cc(F)c(-c4ncc(F)c(OCc5ccc(C#N)cc5F)n4)cc3F)nc3ccc(C(=O)O)cc32)CC1 [Example 133, 2-(4-(4-((4-cyano-2-fluorobenzyl)oxy)-5-fluoropyrimidin-2-yl)-2,5-difluorobenzyl)-1-((1-(cyanomethyl)cyclopropyl)methyl)-1H-benzo[d]imidazole-6-carboxylic acid] | 5.58 mL/min/kg | 0.26 nM | 
7 | COCCn1c(Cc2ccc(-c3cccc(OCc4cccc(COC)c4)n3)cc2F)nc2ccc(C(=O)O)cc21 [Example 509, 2-(2-fluoro-4-(6-((3-(methoxymethyl)benzyl)oxy)pyridin-2-yl)benzyl)-1-(2-methoxyethyl)-1H-benzo[d]imidazole-6-carboxylic acid] | 12 mL/min/kg | 102 nM | 
8 | COCCn1c(Cc2ccc(-c3cccc(OCc4ccc(C#N)c5ccccc45)n3)cc2F)nc2ccc(C(=O)O)cc21 [Example 357, 2-(4-(6-((4-cyanonaphthalen-1-yl)methoxy)pyridin-2-yl)-2-fluorobenzyl)-1-(2-methoxyethyl)-1H-benzo[d]imidazole-6-carboxylic acid] | <1.83 mL/min/kg | 56.2 nM | 
9 | COCCn1c(Cc2ccc(-c3cccc(OCc4ccc(CC#N)cc4)n3)cc2F)nc2ccc(C(=O)O)cc21 [Example 229, 2-(4-(6-((4-(cyanomethyl)benzyl)oxy)pyridin-2-yl)-2-fluorobenzyl)-1-(2-methoxyethyl)-1H-benzo[d]imidazole-6-carboxylic acid] | 8.67 mL/min/kg | 35.4 nM | 
10 | Cc1cnc(Cn2c(Cc3cc(F)c(-c4cccc(OCc5ccc(C#N)cc5F)n4)cc3F)nc3ccc(C(=O)O)cc32)o1 [Example 616] | 8.33 mL/min/kg | 26.9 nM | 
11 | N#Cc1ccc(COc2ccnc(-c3cc(F)c(Cc4nc5c(F)cc(C(=O)O)cc5n4C[C@@H]4CCO4)cc3F)n2)c(F)c1 [Example 778] | 3.67 mL/min/kg | 0.13 nM | 
12 | N#Cc1ccc(COc2nccc(-c3cc(F)c(Cc4nc5ccc(C(=O)O)nc5n4CC4(CF)CC4)cc3F)n2)c(F)c1 [Example 106, 2-(4-(2-((4-cyano-2-fluorobenzyl)oxy)pyrimidin-4-yl)-2,5-difluorobenzyl)-3-((1-(fluoromethyl)cyclopropyl)methyl)-3H-imidazo[4,5-b]pyridine-5-carboxylic acid] | <1.83 mL/min/kg | 1.5 nM | 
13 | Cc1cc2nc(Cc3cc(F)c(-c4cccc(OCc5ccc(C#N)cc5F)n4)cc3F)n(C[C@@H]3CCO3)c2cc1C(=O)O [Example 921] | 2.83 mL/min/kg | 0.33 nM | 
14 | CC1(C)CC[C@@H](Cn2c(Cc3cc(F)c(-c4cccc(OCc5ccc(C#N)cc5F)n4)cc3F)nc3ccc(C(=O)O)cc32)O1 (racemic) [Example 549, 2-(4-(6-((4-cyano-2-fluorobenzyl)oxy)pyridin-2-yl)-2,5-difluorobenzyl)-1-((5,5-dimethyltetrahydrofuran-2-yl)methyl)-1H-benzo[d]imidazole-6-carboxylic acid] | 12 mL/min/kg | 45.5 nM | 
15 | COCCn1c(Cc2ccc(-c3cccc(OCc4cccc5c4OC(C)(C)C5)n3)cc2F)nc2ccc(C(=O)O)cc21 [Example 152, 2-(4-(6-((2,2-dimethyl-2,3-dihydrobenzofuran-7-yl)methoxy)pyridin-2-yl)-2-fluorobenzyl)-1-(2-methoxyethyl)-1H-benzo[d]imidazole-6-carboxylic acid] | 12 mL/min/kg | 130 nM | 
16 | COCCn1c(Cc2ccc(-c3cccc(OCc4ccc(C#N)cc4F)n3)cc2C)nc2ccc(C(=O)O)cc21 [Example 59, 2-(4-(6-((4-cyano-2-fluorobenzyl)oxy)pyridin-2-yl)-2-methylbenzyl)-1-(2-methoxyethyl)-1H-benzo[d]imidazole-6-carboxylic acid] | <1.83 mL/min/kg | 5.6 nM | 
17 | N#Cc1ccc(COc2cccc(-c3ccc(Cc4nc5ccc(C(=O)O)cc5n4CC45CCC(CC4)O5)c(F)c3)n2)c(F)c1 [Example 231, 1-(7-oxabicyclo[2.2.1]heptan-1-ylmethyl)-2-(4-(6-((4-cyano-2-fluorobenzyl)oxy)pyridin-2-yl)-2-fluorobenzyl)-1H-benzo[d]imidazole-6-carboxylic acid] | 8.17 mL/min/kg | 35.4 nM | 
18 | N#Cc1ccc(COc2cccc(-c3ccc(Cc4nc5ccc(C(=O)O)cc5n4CCCO)c(F)c3)n2)c(F)c1 [Example 392, 2-(4-(6-((4-cyano-2-fluorobenzyl)oxy)pyridin-2-yl)-2-fluorobenzyl)-1-(3-hydroxypropyl)-1H-benzo[d]imidazole-6-carboxylic acid] | 3.17 mL/min/kg | 14.5 nM | 
19 | COCCn1c(Cc2ccc(-c3nc(OCc4ccc(C#N)cc4F)ncc3F)cc2F)nc2ccc(C(=O)O)cc21 [Example 358, 2-(4-(2-((4-cyano-2-fluorobenzyl)oxy)-5-fluoropyrimidin-4-yl)-2-fluorobenzyl)-1-(2-methoxyethyl)-1H-benzo[d]imidazole-6-carboxylic] | 6.5 mL/min/kg | 33.1 nM | 
20 | O=C(O)c1ccc2nc(Cc3c(F)cc(-c4cccc(OCc5ccc(C(F)F)cc5F)n4)c(F)c3F)n(CC34CC(CO3)C4)c2c1 [Example 756] | 7.67 mL/min/kg | 1.42 nM | 
21 | N#Cc1ccc(COc2cccc(-c3ccc(Cc4nc5ccc(C(=O)O)cc5n4CC4(CO)COC4)c(F)c3)n2)c(F)c1 [Example 326, 2-(4-(6-((4-cyano-2-fluorobenzyl)oxy)pyridin-2-yl)-2-fluorobenzyl)-1-((3-(hydroxymethyl)oxetan-3-yl)methyl)-1H-benzo[d]imidazole-6-carboxylic acid] | 12.3 mL/min/kg | 6.81 nM | 
22 | CC1(C)COC1Cn1c(Cc2ccc(-c3cccc(OCc4ccc(C#N)cc4F)n3)cc2F)nc2ccc(C(=O)O)cc21 (centres unmarked) [Example 264, 2-(4-(6-((4-cyano-2-fluorobenzyl)oxy)pyridin-2-yl)-2-fluorobenzyl)-1-((3,3-dimethyloxetan-2-yl)methyl)-1H-benzo[d]imidazole-6-carboxylic acid] | 4 mL/min/kg | 26.2 nM | 
23 | COCCn1c(Cc2c(F)cc(-c3cccc(OCc4ccc(C#N)cc4F)n3)c(F)c2F)nc2ccc(C(=O)O)cc21 [Example 401, 2-(4-(6-((4-cyano-2-fluorobenzyl)oxy)pyridin-2-yl)-2,3,6-trifluorobenzyl)-1-(2-methoxyethyl)-1H-benzo[d]imidazole-6-carboxylic acid] | 6.92 mL/min/kg |  | 1.34 nM
24 | COc1cc(Cl)ncc1COc1cccc(-c2cc(F)c(Cc3nc4ccc(C(=O)O)cc4n3C[C@@H]3CCO3)cc2F)n1 [Example 853] | 9 mL/min/kg | 0.15 nM | 
25 | N#Cc1ccc(COc2nccc(-c3cc(F)c(Cc4nc5ccc(C(=O)NS(=O)(=O)C6CC6)cc5n4C[C@@H]4CCO4)cc3F)n2)c(F)c1 [Example 685] | 2.33 mL/min/kg | 1.05 nM | 
26 | N#Cc1ccc(COc2ccc(F)c(-c3cc(F)c(Cc4nc5ccc(C(=O)O)cc5n4CCOC4CC4)cc3F)n2)c(F)c1 [Example 899] | 4 mL/min/kg | 2.26 nM | 
27 | COCCn1c(Cc2cc(F)c(-c3cccc(OCc4cccnc4OC(F)F)n3)cc2F)nc2ccc(C(=O)O)cc21 [Example 542, 2-(4-(6-((2-(difluoromethoxy)pyridin-3-yl)methoxy)pyridin-2-yl)-2,5-difluorobenzyl)-1-(2-methoxyethyl)-1H-benzo[d]imidazole-6-carboxylic acid] | 20 mL/min/kg | 8.6 nM | 
28 | N#Cc1ccc(COc2nc(-c3cc(F)c(Cc4nc5ccc(C(=O)O)cc5n4CC4(CF)CC4)cc3F)ncc2F)c(F)c1 [Example 161, 2-(4-(4-((4-cyano-2-fluorobenzyl)oxy)-5-fluoropyrimidin-2-yl)-2,5-difluorobenzyl)-1-((1-(fluoromethyl)cyclopropyl)methyl)-1H-benzo[d]imidazole-6-carboxylic acid] | 3.83 mL/min/kg | 1 nM | 
